From ChEMBL document CHEMBL5625268, “Identification of novel benzothiazole derivatives as inhibitors of NEDDylation pathway to inhibit the progression of gastric cancer” (Bioorg Med Chem Lett, 2024)

Legend:
KYSE-30 = assay: Antiproliferative activity against human KYSE-30 cells by CCK8 assay; assay type: functional, cell-based
MGC-803 = assay: Antiproliferative activity against human MGC-803 cells by CCK8 assay; assay type: functional, cell-based
A549 = assay: Antiproliferative activity against human A549 cells by CCK8 assay; assay type: functional, cell-based
MCF7 = assay: Antiproliferative activity against human MCF7 cells by CCK8 assay; assay type: functional, cell-based
[1] = target: T1, NEDD8-activating enzyme E1 regulatory subunit (Homo sapiens, UniProt Q13564); assay: Inhibition of NAE (unknown origin)
T1 sequence (Q13564 whole entry): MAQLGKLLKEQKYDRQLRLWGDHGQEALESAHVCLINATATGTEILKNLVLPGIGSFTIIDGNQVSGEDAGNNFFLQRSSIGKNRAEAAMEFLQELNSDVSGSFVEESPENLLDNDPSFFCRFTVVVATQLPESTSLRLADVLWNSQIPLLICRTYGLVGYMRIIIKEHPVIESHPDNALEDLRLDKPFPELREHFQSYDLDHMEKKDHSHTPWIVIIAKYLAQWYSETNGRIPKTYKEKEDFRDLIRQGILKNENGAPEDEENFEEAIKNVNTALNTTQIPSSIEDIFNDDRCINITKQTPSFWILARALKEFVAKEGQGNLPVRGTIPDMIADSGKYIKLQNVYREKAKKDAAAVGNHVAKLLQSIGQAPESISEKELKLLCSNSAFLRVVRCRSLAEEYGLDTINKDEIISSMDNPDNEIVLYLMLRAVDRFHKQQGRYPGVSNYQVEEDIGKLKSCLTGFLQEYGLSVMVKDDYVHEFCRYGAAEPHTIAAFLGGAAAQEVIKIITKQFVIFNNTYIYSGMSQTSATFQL

SMILES	IC50 (KYSE-30) [µM]	IC50 (MGC-803) [µM]	IC50 (A549) [µM]	IC50 (MCF7) [µM]	IC50 [1] [µM]
O=C(Nc1nc2ccc(NC(=O)C3CCN(Cc4ccccc4)CC3)cc2s1)c1ccc(F)cc1	1.08	12.7	4.51	5.74	
COc1ccccc1/C=C1\SC(=O)N(CCC(=O)Nc2ccc(S(N)(=O)=O)cc2)C1=O					12
O=C(Nc1nc2ccc(NC(=O)C3CCN(Cc4ccccc4)CC3)cc2s1)c1ccc(C(F)(F)F)cc1	1.25	8.53	6.29	4.58	
O=C(Nc1nc2ccc(NC(=O)C3CCN(Cc4ccccc4)CC3)cc2s1)c1sccc1F	2.03	2.8	1.99	2.35	
O=C(Nc1nc2ccc(NC(=O)C3CCN(Cc4ccccc4)CC3)cc2s1)c1ccc(F)cc1Cl	2.08	10.7	3.77	15.9	
O=C(Nc1nc2ccc(NC(=O)C3CCN(Cc4ccccc4)CC3)cc2s1)c1ccc2c(c1)OCO2	1.33	1.85	1.35	1.63	
CCOc1cccc(F)c1C#Cc1cn([C@H]2O[C@@H](CNS(N)(=O)=O)[C@H](O)[C@@H]2O)c2ncnc(N)c12					0.004
N#Cc1ccc(C(=O)Nc2nc3ccc(NC(=O)C4CCN(Cc5ccccc5)CC4)cc3s2)cc1	1.41	4.74	3.31	13.1	
O=C(Nc1nc2ccc(NC(=O)C3CCN(Cc4ccccc4)CC3)cc2s1)c1cccs1	1.64	2.77	1.7	3.24	
O=C(Nc1nc2ccc(NC(=O)C3CCN(Cc4ccccc4)CC3)cc2s1)c1sccc1Br	2.63	3.31	2.47	2.89	
O=C(Nc1nc2ccc(NC(=O)C3CCN(Cc4ccccc4)CC3)cc2s1)c1ccccc1F	2.29	12.9	5.26	11.4	
Cc1ccc(C(=O)Nc2nc3ccc(NC(=O)C4CCN(Cc5ccccc5)CC4)cc3s2)cc1	1.19	3.82	2.18	2.78	
CCCC(=O)Nc1nc2ccc(NC(=O)C3CCN(Cc4ccccc4)CC3)cc2s1	22.7	30.1	29.1	37.5	
O=C(Nc1nc2ccc(NC(=O)C3CCN(Cc4ccccc4)CC3)cc2s1)c1ccco1	7.41	5.09	4.25	7.46	
COc1cc(C(=O)Nc2nc3ccc(NC(=O)C4CCN(Cc5ccccc5)CC4)cc3s2)cc(OC)c1OC	1.08	4.96	5.6	4.15	
O=C(Nc1nc2ccc(NC(=O)C3CCN(Cc4ccccc4)CC3)cc2s1)c1ccc(Cl)o1	1.9	1.75	2.82	1.88	
Nc1ccc(SCC(=O)Nc2ccc3nc(NC(=O)c4ccc(C(F)(F)F)cc4)sc3c2)cc1	17.4	4.91	41.2	> 100	
CCCc1ccc(C(=O)Nc2nc3ccc(NC(=O)C4CCN(Cc5ccccc5)CC4)cc3s2)cc1	0.91	1.87	1.28	1.55	
O=C(Nc1nc2ccc(NC(=O)C3CCN(Cc4ccccc4)CC3)cc2s1)c1ccccc1	3.22	10.9	4.33	4.17	
O=C(Nc1ccc2nc(NC(=O)C3COc4ccccc4O3)sc2c1)C1CCN(Cc2ccccc2)CC1 (stereo not given)	13.8	11	11.4	11.7	
O=C(Nc1nc2ccc(NC(=O)C3CCN(Cc4ccccc4)CC3)cc2s1)c1cscn1	0.73	1.69	1.19	0.98	
O=C(Nc1nc2ccc(NC(=O)C3CCN(Cc4ccccc4)CC3)cc2s1)c1ccc2ccccc2c1	3	8.76	7.25	11.9	
O=C(Nc1nc2ccc(NC(=O)C3CCN(Cc4ccccc4)CC3)cc2s1)c1cccc(F)c1	1.71	13	4.94	7.32	
O=C(Nc1nc2ccc(NC(=O)C3CCN(Cc4ccccc4)CC3)cc2s1)c1cccnc1	19.6	25.6	20.4	23.9	
O=C(Nc1nc2ccc(NC(=O)C3CCN(Cc4ccccc4)CC3)cc2s1)c1ccc(F)c(F)c1	1.82	6.85	5.58	8.54	
C/C=C/C(=O)Nc1nc2ccc(NC(=O)C3CCN(Cc4ccccc4)CC3)cc2s1	17.7	15.7	12.8	11.9	
O=C(Nc1nc2ccc(NC(=O)C3CCN(Cc4ccccc4)CC3)cc2s1)c1ccc(-c2ccccc2)cc1	2.88	7.84	8.13	10.7	
NS(=O)(=O)OC[C@@H]1C[C@@H](n2ccc3c(N[C@H]4CCc5ccccc54)ncnc32)C[C@@H]1O [PEVONEDISTAT]	3.75	1.84	1.64		
